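The compound was tested at five concentrations on cells cultured in 96-well plates, with a 48-hour exposure period. GI50 = concentration required for 50% inhibition of growth.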 The source made the active and inactive calls. No stated cut-off is given here; in the data, active = GI50 up to about 1.1 µM and inactive = higher.
What was measured:
Assay in all cases: NCI-60 cell line screen, 48 h
SK-MEL-5 = system: SK-MEL-5
A498 = system: A498
NCI-H460 = system: NCI-H460
HT-29 = system: HT-29
ACHN = system: ACHN
HOP-62 = system: HOP-62
NCI-H522 = system: NCI-H522
HCC 2998 = system: HCC 2998
MDA-MB-435 = system: MDA-MB-435
KM12 = system: KM12
HL-60 = system: HL-60
Malme-3M = system: Malme-3M
CAKI-1 = system: CAKI-1
EKVX = system: EKVX
A549 = system: A549
OVCAR-5 = system: OVCAR-5
LOX IMVI = system: LOX IMVI
SR = system: SR

Measured: GI50

COc1ccc(NC(C)=O)cc1C1CCC(=O)N1 (stereo unspecified)
inactive: SK-MEL-5 > 100 µM | A498 > 100 µM | NCI-H460 > 100 µM | HT-29 > 100 µM | ACHN > 100 µM | HOP-62 > 100 µM | NCI-H522 > 100 µM | HCC 2998 > 100 µM | MDA-MB-435 > 100 µM | KM12 > 100 µM | HL-60 > 100 µM | Malme-3M > 100 µM | CAKI-1 > 100 µM | EKVX > 100 µM | A549 > 100 µM | OVCAR-5 > 100 µM | LOX IMVI > 100 µM

Cc1ccccc1NC(=O)C(=O)C(C#N)c1ccccc1C (stereo unspecified)
inactive: SK-MEL-5 > 100 µM | A498 > 100 µM | NCI-H460 38.2 µM | HT-29 > 100 µM | ACHN > 100 µM | HOP-62 > 100 µM | NCI-H522 59.3 µM | HCC 2998 > 100 µM | KM12 > 100 µM | HL-60 53.3 µM | SR > 100 µM | Malme-3M > 100 µM | CAKI-1 > 100 µM | EKVX > 100 µM | A549 > 100 µM | OVCAR-5 > 100 µM | LOX IMVI 22.5 µM

C/C1=C\CC[C@@]2(C)O[C@@H]2[C@H]2OC(=O)C(C)C2C[C@H]1O (stereo partly specified)
inactive: SK-MEL-5 22.5 µM | NCI-H460 > 100 µM | HT-29 > 100 µM | ACHN > 100 µM | NCI-H522 > 100 µM | HCC 2998 > 100 µM | MDA-MB-435 > 100 µM | KM12 > 100 µM | SR > 100 µM | Malme-3M > 100 µM | CAKI-1 > 100 µM | EKVX > 100 µM | A549 > 100 µM | OVCAR-5 > 100 µM | LOX IMVI > 100 µM

CC(C)(C)OC(=O)C1=C(O)C(C(=O)OC(C)(C)C)C23CCCCC12C(C(=O)OC(C)(C)C)C(O)=C3C(=O)OC(C)(C)C (stereo unspecified)
inactive: SK-MEL-5 > 100 µM | A498 > 100 µM | NCI-H460 > 100 µM | HT-29 > 100 µM | ACHN > 100 µM | HOP-62 > 100 µM | NCI-H522 > 100 µM | HCC 2998 > 100 µM | KM12 > 100 µM | HL-60 > 100 µM | SR > 100 µM | Malme-3M > 100 µM | CAKI-1 > 100 µM | EKVX > 100 µM | A549 > 100 µM | OVCAR-5 > 100 µM | LOX IMVI > 100 µM

Reference: ChEMBL document CHEMBL1201862, “PubChem BioAssay data set” (2004)
